1 compound from ChEMBL document CHEMBL4765455, “Design, synthesis, and biological evaluations of novel 3-amino-4-ethynyl indazole derivatives as Bcr-Abl kinase inhibitors with potent cellular antileukemic activity” (Eur J Med Chem, 2020) can be followed below.

The target in data set [1] is Tyrosine-protein kinase ABL1 (Homo sapiens, UniProt P00519). The data set is described as follows: Inhibition of NanoLuc-fused ABL1 (unknown origin) expressed in human HEK293 cells incubated for 2 to 3 mins by NanoBRET assay. The class given is cell-based.
Chain of Tyrosine-protein kinase ABL1 (P00519 whole entry, the tested form may be a part): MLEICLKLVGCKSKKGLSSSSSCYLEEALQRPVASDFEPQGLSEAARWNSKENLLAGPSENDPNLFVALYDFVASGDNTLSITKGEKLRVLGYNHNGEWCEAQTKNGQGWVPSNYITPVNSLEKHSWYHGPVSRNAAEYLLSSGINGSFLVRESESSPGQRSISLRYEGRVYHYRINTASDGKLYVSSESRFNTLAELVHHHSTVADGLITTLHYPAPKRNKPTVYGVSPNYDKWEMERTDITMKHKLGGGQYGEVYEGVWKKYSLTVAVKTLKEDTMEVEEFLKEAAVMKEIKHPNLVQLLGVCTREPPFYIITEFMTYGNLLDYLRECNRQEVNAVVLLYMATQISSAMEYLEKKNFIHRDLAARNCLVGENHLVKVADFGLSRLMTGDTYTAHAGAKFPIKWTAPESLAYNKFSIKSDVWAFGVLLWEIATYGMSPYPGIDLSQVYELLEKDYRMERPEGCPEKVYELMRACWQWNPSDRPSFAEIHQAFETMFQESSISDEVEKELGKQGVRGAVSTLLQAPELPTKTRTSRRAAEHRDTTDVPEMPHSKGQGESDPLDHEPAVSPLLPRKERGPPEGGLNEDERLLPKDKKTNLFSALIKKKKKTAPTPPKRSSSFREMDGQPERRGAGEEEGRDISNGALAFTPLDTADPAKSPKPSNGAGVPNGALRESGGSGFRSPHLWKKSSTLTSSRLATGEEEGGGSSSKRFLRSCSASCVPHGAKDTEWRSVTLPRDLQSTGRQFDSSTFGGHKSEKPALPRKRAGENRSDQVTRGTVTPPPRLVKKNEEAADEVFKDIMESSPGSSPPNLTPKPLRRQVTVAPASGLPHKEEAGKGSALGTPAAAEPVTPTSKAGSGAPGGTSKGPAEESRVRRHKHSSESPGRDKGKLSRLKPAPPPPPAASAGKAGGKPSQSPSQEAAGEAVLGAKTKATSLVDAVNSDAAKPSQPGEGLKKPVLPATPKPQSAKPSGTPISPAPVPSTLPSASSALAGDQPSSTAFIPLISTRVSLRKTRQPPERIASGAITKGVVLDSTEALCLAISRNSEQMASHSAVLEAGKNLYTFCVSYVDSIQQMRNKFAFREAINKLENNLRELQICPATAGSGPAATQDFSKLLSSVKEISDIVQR
Data set [2] can be described thus: Selectivity index, ratio of GI50 for human HL60(TB) cells to GI50 for human K562 cells. The class given is functional.
The target in data set [3] is Focal adhesion kinase 1 (Homo sapiens) (UniProt Q05397). The data set is described as follows: Inhibition of FAK/PTK2 (unknown origin) at 1 uM relative to control.
Chain of Focal adhesion kinase 1 (Homo sapiens) (Q05397 2-1052 limits assumed): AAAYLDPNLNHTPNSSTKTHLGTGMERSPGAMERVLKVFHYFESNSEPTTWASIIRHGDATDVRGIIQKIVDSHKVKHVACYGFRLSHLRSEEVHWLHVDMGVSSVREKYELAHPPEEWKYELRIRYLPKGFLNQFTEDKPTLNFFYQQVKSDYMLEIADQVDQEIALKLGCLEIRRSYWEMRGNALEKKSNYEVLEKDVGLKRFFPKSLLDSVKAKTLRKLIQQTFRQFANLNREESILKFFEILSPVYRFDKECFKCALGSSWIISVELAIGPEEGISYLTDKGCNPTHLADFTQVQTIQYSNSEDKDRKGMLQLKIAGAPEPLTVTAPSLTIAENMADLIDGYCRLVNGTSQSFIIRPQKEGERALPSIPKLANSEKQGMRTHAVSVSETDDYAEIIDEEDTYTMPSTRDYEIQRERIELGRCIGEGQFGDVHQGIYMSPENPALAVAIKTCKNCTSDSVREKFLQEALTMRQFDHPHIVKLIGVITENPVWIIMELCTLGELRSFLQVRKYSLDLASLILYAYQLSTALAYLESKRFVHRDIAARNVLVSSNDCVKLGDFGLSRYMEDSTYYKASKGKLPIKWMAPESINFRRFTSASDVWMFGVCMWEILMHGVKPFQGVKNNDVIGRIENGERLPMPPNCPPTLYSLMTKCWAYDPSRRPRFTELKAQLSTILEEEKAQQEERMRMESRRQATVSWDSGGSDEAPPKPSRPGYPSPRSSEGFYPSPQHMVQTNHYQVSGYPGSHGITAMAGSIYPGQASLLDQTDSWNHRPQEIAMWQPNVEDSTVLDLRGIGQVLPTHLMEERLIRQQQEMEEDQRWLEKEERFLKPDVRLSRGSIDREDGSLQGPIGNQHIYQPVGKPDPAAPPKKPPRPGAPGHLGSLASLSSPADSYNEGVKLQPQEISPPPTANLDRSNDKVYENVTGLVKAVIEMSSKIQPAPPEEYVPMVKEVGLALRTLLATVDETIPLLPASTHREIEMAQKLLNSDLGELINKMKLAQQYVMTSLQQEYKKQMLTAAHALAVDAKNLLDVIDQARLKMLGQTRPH
A short description of data set [4]: Half life in ICR mouse at 10 mg/kg, po measured up to 8 hrs by LC-MS/MS analysis. The class given is ADME, organism-based. To be noted: in vivo.
A short description of data set [5]: Mean residence time in ICR mouse at 10 mg/kg, po measured up to 8 hrs by LC-MS/MS analysis. To be noted: in vivo. Format: ADME, organism-based.
Data set [6] deals with Proto-oncogene tyrosine-protein kinase Src (Homo sapiens, UniProt P12931). The data set is described as follows: Inhibition of c-Src (unknown origin) in presence of ATP.
Chain of Proto-oncogene tyrosine-protein kinase Src (P12931 2-536 limits assumed): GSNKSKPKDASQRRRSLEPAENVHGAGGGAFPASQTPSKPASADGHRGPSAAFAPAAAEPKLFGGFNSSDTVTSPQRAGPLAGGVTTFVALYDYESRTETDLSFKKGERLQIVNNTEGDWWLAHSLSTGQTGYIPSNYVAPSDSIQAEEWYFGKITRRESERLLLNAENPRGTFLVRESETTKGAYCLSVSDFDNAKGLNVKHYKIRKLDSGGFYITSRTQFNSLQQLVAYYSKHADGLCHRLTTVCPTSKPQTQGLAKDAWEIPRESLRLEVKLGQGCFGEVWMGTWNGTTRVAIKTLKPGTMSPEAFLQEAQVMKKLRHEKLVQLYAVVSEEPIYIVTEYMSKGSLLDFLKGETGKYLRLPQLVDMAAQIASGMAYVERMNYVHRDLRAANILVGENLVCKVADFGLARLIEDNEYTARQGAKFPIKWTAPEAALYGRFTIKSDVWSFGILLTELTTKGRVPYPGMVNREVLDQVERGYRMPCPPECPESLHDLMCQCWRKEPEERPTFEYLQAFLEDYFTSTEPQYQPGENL
The species named for data set [7] is Homo sapiens. The data set is described as follows: Potency index, ratio of test compound IC50 to E4031 IC50 for human […].
Data set [8] addresses Serine/threonine-protein kinase pim-1 (Homo sapiens) (UniProt P11309). The data set is described as follows: Inhibition of PIM1 (unknown origin) at 1 uM relative to control.
The nature of data set [9]: Oral bioavailability in ICR mouse at 10 mg/kg measured up to 8 hrs by LC-MS/MS analysis. Format: ADME, organism-based. To be noted: in vivo.
Another data set concerns HL-60(TB). The data set is described as follows: Antiproliferative activity against human HL-60(TB) cells assessed as cell growth inhibition measured after 48 hrs by SRB assay. Format: functional. Background: In SRB staining, fixed cells bind dye roughly in proportion to their protein.
The species entered for data set [10] is Homo sapiens. The data set is described as follows: Selectivity index, ratio of IC50 for BRAF (unknown origin) to IC50 for Bcr-Abl (unknown origin).
A further data set deals with MOLT-4. The data set is described as follows: Antiproliferative activity against human MOLT-4 cells assessed as cell growth inhibition at 10 uM measured after 48 hrs by SRB assay relative to control. The class given is functional. To be noted: read-out: GI.
Data set [11] is filed under the species Homo sapiens. The data set is described as follows: Selectivity index, ratio of IC50 for human ERG to EC50 for ABL1 (unknown origin) expressed in human HEK293 cells. The class given is cell-based.
The species entered for data set [12] is Homo sapiens. The data set is described as follows: Selectivity index, ratio of IC50 for c-Src (unknown origin) to IC50 for Bcr-Abl (unknown origin).
Data set [13] has as its target Voltage-gated inwardly rectifying potassium channel KCNH2 (Homo sapiens, UniProt Q12809). The data set is described as follows: Inhibition of human ERG incubated for 4 hrs by competitive fluorescence tracer binding based assay.
The next data set relates to SR. The data set is described as follows: Antiproliferative activity against human SR cells assessed as cell growth inhibition measured after 48 hrs by SRB assay. Format: functional.
Data set [14] in a line: Clearance in ICR mouse at 5 mg/kg, iv measured up to 8 hrs by LC-MS/MS analysis. To be noted: in vivo. Format: ADME, organism-based.
Data set [15] addresses Receptor-type tyrosine-protein kinase FLT3 (Homo sapiens, UniProt P36888). The data set is described as follows: Inhibition of FLT3 (unknown origin) in presence of ATP.

Chain of Receptor-type tyrosine-protein kinase FLT3 (P36888 whole entry): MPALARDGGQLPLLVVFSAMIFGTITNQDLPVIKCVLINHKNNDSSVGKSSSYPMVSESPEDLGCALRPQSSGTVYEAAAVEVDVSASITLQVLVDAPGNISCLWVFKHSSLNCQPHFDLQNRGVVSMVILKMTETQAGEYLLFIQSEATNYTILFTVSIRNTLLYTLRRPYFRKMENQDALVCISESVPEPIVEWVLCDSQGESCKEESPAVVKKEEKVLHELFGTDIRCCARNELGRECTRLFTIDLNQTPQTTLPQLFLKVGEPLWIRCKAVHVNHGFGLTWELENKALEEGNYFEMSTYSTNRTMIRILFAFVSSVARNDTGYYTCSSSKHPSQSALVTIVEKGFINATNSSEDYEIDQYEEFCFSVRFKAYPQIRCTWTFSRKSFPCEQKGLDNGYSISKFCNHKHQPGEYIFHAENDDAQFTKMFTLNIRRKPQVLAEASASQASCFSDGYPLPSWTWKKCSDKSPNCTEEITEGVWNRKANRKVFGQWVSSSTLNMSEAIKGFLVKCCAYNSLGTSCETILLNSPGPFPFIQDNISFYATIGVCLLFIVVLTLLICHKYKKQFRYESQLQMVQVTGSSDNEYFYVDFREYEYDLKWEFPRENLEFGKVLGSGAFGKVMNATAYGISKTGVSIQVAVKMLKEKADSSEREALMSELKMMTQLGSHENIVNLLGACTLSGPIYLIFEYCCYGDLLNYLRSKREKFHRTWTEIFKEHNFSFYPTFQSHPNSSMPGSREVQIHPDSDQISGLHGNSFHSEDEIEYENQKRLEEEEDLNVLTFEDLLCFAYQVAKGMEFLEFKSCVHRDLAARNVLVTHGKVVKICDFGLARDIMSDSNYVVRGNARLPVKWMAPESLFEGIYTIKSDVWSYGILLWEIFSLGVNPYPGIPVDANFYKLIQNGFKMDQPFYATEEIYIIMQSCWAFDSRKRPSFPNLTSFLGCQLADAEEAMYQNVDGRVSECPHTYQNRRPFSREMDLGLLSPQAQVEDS
Chain of Serine/threonine-protein kinase pim-1 (Homo sapiens) (P11309 whole entry, looked up): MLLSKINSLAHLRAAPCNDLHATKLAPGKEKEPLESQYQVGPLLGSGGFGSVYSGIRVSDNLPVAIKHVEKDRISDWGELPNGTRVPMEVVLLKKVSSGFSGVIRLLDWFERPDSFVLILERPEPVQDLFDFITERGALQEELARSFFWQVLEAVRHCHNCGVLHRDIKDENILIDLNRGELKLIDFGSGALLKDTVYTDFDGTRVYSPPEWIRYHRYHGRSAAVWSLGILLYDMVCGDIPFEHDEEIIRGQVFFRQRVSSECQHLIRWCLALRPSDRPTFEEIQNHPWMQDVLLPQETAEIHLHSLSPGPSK

On to `Nc1n[nH]c2cccc(C#Cc3cccc(NC(=O)c4ccc(N5CCOCC5)c(C(F)(F)F)c4)c3)c12`, for which, in [1], the concentration giving a half-maximal response (EC50) (usually the concentration needed to bring the measured effect to its halfway point) turned out to be 14.6 nM. In addition, the RatioGI50 in [2] is 140. The inhibition in data set [3] and in data set [8] was below 30% throughout. The half-life (commonly the time needed for the level to fall by half in the phase considered) in data set [4] is 0.7 h. Further, in [5], the mean residence time MRT (as a rule, the average time that molecules of a dose stay in the body) is 1.3 h. For the same compound, the results for the IC50 in data set [6], in [13] and in data set [15] were 66 nM, 3400 nM and 535 nM, respectively. In addition, the Ratio IC50 in the data set filed under Homo sapiens [7] is 310; in the data set filed under Homo sapiens [10], 26.5; in the data set listed under Homo sapiens [12], 14.3. For the same compound, the bioavailability (in general, dose-corrected exposure relative to a reference, in per cent) in data set [9] was 0.6%. The figures for the concentration for 50% growth inhibition (GI50) in the data set on HL-60(TB) and in the data set with SR were 1400 nM and 2400 nM, respectively. Moreover, the inhibition of growth at 10 µM in the data set with MOLT-4 is 92.3%. For the same compound, the Ratio IC50/EC50 in the data set filed under Homo sapiens [11] came to 233. Moreover, in [14], the clearance (as a rule, the volume of plasma or blood freed of the substance per unit of time) came out at 5 mL/min/kg.
